“Also recorded” adds a separate entry of the source.
What was measured:
[1] = test system: LRRK2 dimers (WT/WT, WT/G2019S, G2019S/G2019S); assay: Proximity biotinylation ELISA-based LRRK2 dimerization assay in cells; assay type: cell-based; conditions: for LRRK2 dimerization in cells (FIG. 8): 0.1, 1 and 10 μM fluorescently labeled peptide; for LRRK2 dimerization, wild-type homodimers and wild-type/G2019S heterodimers: HEK293 cells
Excerpt: Proximity biotinylation of LRRK2. To purify LRRK2 dimers, we relied on the proximity biotinylation technique recently described (E. Leandrou et al., Kinase activity of mutant LRRK2 manifests differently in hetero-dimeric vs. homo-dimeric complexes. Biochem J 476, 559-579 (2019); and M. Fernandez-Suarez, T. S. Chen, A. Y. Ting, Protein-protein interaction detection in vitro and in cells by proximity biotinylation. J Am Chem Soc 130, 9251-9253 (2008)). Briefly, two cDNAs were created encoding LRRK2 fusions with biotin ligase (BirA; N-term, Flag-tagged) and an acceptor peptide (AP, N-term; c-Myc tagged), and over-expressed in HEK293T cells grown in biotin-depleted medium (OptiMEM+2% FBS). The following day, the cells were treated with the indicated concentrations of the stapled peptides: LRIP4 and LCIP1. Stock peptides, fluorescently tagged, were diluted in serum-free medium, and added every 24 hours after transfection. After 48 hours following initiation of treatment (i.e. 72 hr of total expression), the cells were extensively washed in PBS, given a brief biotin pulse (50 μM, 5 min, 37° C.), followed by another 3× washes in PBS, centrifuged and the pellet snap frozen in a dry-ice/MeOH bath. Following lysis, extracts were diluted in TBST/BSA (10 mM Tris HCl, pH 7.6; 100 mM NaCl; 0.1% Triton X-100; 1% BSA) and 2.5 μg of protein loaded in parallel ELISA plates, coated with streptavidin (SA; to capture biotinylated LRRK2 dimers) and anti-LRRK2 (to quantify LRRK2 over-expression). To detect and quantify dimeric LRRK2, SA-coated plates were incubated with HRP-conjugated anti-Flag antibodies (1 hour, room temperature). Since the biotin tag is only present on AP-LRRK2 fusions, and the flag epitope tag is located on the BirA-LRRK2 fusion, by using HRP-Flag as our detector reagent, we are specifically labeling dimeric LRRK2 present in the ELISA plates. On the parallel anti-LRRK2 coated plates (clone c41-2), total over-expressed LRRK2 was quantified using HRP-LRRK2 antibodies (clone N241) and used to normalize the relative amounts of dimeric LRRK2. The following LRRK2 dimers were assessed: WT/WT homodimers, WT/G2019S, and G2019S/G2019S homodimers.
In this assay, HEK293T cells expressing either wild-type or G2019S mutants of LRRK2 fusions, either with the biotin ligase BirA or the acceptor peptide AP, were treated with increasing concentrations (0.1, 1, and 10 μM) of each fluorescently labeled peptide.

[2] = test system: primary cortical neurons overexpressing G2019S-LRRK2; assay: Neuronal apoptosis in primary cortical neurons expressing G2019S-LRRK2; assay type: cell-based, mouse; conditions: 10 μM peptide, 48 h
Excerpt: Preparation of primary mouse neuronal cultures, and assessment of neuronal death. Embryonic day 16 (E16) pregnant C57BL mice were used in this study, with primary cortical neurons prepared as described (N. Antoniou et al., A motif within the armadillo repeat of Parkinson's-linked LRRK2 interacts with FADD to hijack the extrinsic death pathway. Sci Rep 8, 3455 (2018)). Briefly, under aseptic conditions, cortices were removed and cut into small pieces before enzymatic digestion (trypsin 0.05% and 100 μg/ml DNAse) and mechanical dissociation. Cells were centrifuged and counted and plated at a density of 150,000/cm^2 in BrainPhys neuronal culture medium (StemCell Technologies) supplemented with SM1 Neuronal Supplement (StemCell Technologies), L-glutamine (0.5 mM) and penicillin/[…]. After 3-4 DIV, neurons were transfected using Lipofectamine 2000 (Thermo Scientific) as per the manufacturer's instructions. Neurons were transfected with Flag-tagged WT or mutant (G2019S) human LRRK2 (as described previously). The following day, the treatment of neurons with fluorescently labeled peptides (at 10 μM final concentration) was initiated. The peptides were replenished in the neuronal medium after 24 hours, and the indicated concentrations. […] For quantification of apoptotic neuronal profiles, the approach described previously was used.

[3] = test system: LRRK2 (R1441G) kinase activity as Rab10 phosphorylation; assay: Rab10 pT73 phosphorylation immunoblot, HEK293T with LRRK2 R1441G and Rab29; assay type: cell-based; conditions: LRRK2 R1441G + Rab29, 10 μM peptide, 12 h / 15 hours
Procedure: Rab10 Immunoblotting. HEK293T cells were co-transfected at a confluency of 50-60% with Strep-FLAG tagged LRRK2 R1441G and Rab29 as well as Rab10 (both HA-FLAG tagged) using polyethylenimine (PEI, Polyscience) as previously described(46). […] […], cells were lysed in twice, first in lysis buffer (30 mM Tris-HCL (pH7.4), 150 mM NaCl, 0.5% NP-40, complete protease Inhibitor cocktail and phosphatase inhibitor cocktail II & III (Sigma Aldrich) and again after centrifugation in 1% SDS. Cleared lysates were adjusted to 2 μg/μl with 5× Laemmli Buffer and lysis buffer. Samples were used for denaturating electrophoresis using 10% Bis-Tris gels (NuPAGE) and for western blotting onto PVDF membranes. Membranes were blocked with 5% non-fat dry milk dissolved in TBS-T (30 mM Tris-HCL (pH 7.4), 0.1% Tween 20) and separated horizontally at 140 kDa. Primary antibodies were added TBS-T with 5% BSA (pT73 Rab10) 1:2,000 (ab230261) and pS1292 LRRK2 1:2,000 (ab203181)) or total protein antibodies (Rab10(ERP13424) 1:5,000 (ab181367) or LRRK2 (clone 24D8) 1:5,000 (Gloeckner lab)), respectively. Membranes were incubated with HRP-conjugated secondary antibodies diluted in TBS-T with 5% milk prior to imaging using ECL Plus (Pierce) with exposure to photometric films (Hyperfilms, GE Healthcare). […]

Sequence of LRRK2 dimers (WT/WT, WT/G2019S, G2019S/G2019S) (Q5S007 1328-1878 limits assumed, stated change not applied): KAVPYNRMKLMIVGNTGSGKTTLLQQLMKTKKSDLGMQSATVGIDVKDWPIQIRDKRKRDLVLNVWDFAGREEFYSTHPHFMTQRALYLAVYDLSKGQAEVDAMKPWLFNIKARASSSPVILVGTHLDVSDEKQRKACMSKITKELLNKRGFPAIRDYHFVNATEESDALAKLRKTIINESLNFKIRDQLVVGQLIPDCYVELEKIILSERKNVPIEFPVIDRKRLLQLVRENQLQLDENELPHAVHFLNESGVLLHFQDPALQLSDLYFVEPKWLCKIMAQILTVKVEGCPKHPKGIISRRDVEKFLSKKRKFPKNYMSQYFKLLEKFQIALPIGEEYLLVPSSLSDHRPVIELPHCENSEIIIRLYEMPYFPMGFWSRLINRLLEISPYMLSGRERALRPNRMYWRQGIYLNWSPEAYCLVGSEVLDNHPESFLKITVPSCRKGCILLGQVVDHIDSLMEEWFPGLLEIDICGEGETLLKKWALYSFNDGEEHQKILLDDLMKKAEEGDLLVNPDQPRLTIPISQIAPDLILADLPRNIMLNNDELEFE

Row | Substance | LRRK2 dimerization in cells (FIG. 8) [1] | LRRK2 dimerization, wild-type homodimers and wild-type/G2019S heterodimers [1] | neurons undergoing apoptosis [2] | Rab10 phosphorylation (pT73) [3] | LRRK2 dimerization, G2019S/G2019S homodimers and G2019S/wild-type heterodimers ([1]; HEK293(T) cells, 10 mM peptide as printed)
1 | COR-domain stapled peptide formed from SEQ ID NO. 16 KGEGEXLLKXWK, X = (S)-2-(4′-pentenyl)alanine; PEG3 linker, FAM or biotin label (hydrocarbon staple; PEG3 linker; FAM or biotin; COR domain peptide; (6)..(6) Xaa is (S)-2-(4′-pentenyl)alanine; (10)..(10) Xaa is (S)-2-(4′-pentenyl)alanine) [LCIP1] | failed to consistently lead to a reduction in LRRK2 dimerization; also recorded: no statistically significant effect on dimerization | no statistically significant effects on dimerization | sharp decline in neurons undergoing apoptosis | reduced Rab10 phosphorylation | 
2 | Roc-domain stapled peptide formed from SEQ ID NO. 6 DEKQRKAC(Nle)SKITKEXLNKX, X = (S)-2-(4′-pentenyl)alanine; PEG3 linker, FAM or biotin label (DEKQRKACXSKITKEXLNKX; hydrocarbon staple; Nle; PEG3 linker; FAM or biotin; ROC domain petide; (9)..(9) Xaa is norleucine; (16)..(16) Xaa is (S)-2-(4′-pentenyl)alanine; (20)..(20) Xaa is (S)-2-(4′-pentenyl)alanine) [LRIP4] | effectively disrupts LRRK2 dimerization in cells | inhibit dimerization of both wild-type LRRK2 homodimers and wild-type/G2019S LRRK2 heterodimers | sharp decline in neurons undergoing apoptosis, especially for LRIP4 treated cells | reduced Rab10 phosphorylation with LRIP4 inducing a more pronounced effect; also recorded: reduced after treatment with LRIP4 or LCIP1, with LRIP4 having a larger inhibitory effect | statistically significant reduction in both G2019S/G2019S and G2019S/wild-type LRRK2 dimers; also recorded: inhibit dimerization of both wild-type/G2019S LRRK2 heterodimers or G2019S LRRK2 homodimers
